Data: patent publication US20170348331A1, “METHODS AND COMPOSITIONS FOR […] LEVELS” (Children's Hospital & Research Center at Oakland, priority 2013, published 2017)

Key:
melatonin production = conditions: increasing doses of vitamin D supplementation; cited from earlier work
TPH1 [1] = assay: TPH1 expression in placental tissue homogenate of a pregnant person by ELISA; format: in vivo, human; conditions: pregnant person with elevated TPH1, about 1,000 IU per 11.3 kg per day, after 4 weeks
Experimental: TPH1 expression levels are determined from placental tissue homogenate obtained from a pregnant person by ELISA analysis. […] This means that the parent has increased risk of having child with autistic spectrum disorder. Vitamin D is then administered to the pregnant person at about 1,000 IU per 11.3 kg per day. After 4 weeks of the vitamin D treatment, TPH1 expression levels are assayed in placental tissue homogenate by ELISA analysis again. […] This implies the risk of having autistic child is reduced.

TPH1 [2] = assay: TPH1 expression in peripheral blood cells of a pregnant mother by ELISA; format: in vivo, human; conditions: pregnant mother with elevated TPH1, ~1,000 IU per 11.3 kg per day, after 4 weeks
Experimental: TPH1 expression levels are determined from peripheral blood cells by ELISA analysis from a pregnant mother. […] This means that the mother has increased risk of having autistic child. Vitamin D is then be administered ˜1,000 IU per 11.3 kg per day. After 4 weeks of the vitamin D treatment, TPH1 expression levels are assayed in peripheral blood by ELISA analysis again. […] The vitamin D treatment will continue through pregnancy and breastfeeding. This implies the risk of having autistic child is reduced.

[3] = system: regulatory T cells (Tregs); conditions: vitamin D supplementation; cited from earlier work

## Vitamin D
Melatonin production
  melatonin production: dose-dependent decrease
TPH1 [1]
  TPH1 expression level in placental tissue homogenate: decreased to normal range
TPH1 [2]
  TPH1 expression level in peripheral blood: decreased to normal range
[3]
  Tregs in peripheral blood: significantly increase Tregs
